Measurements: PMC7034072, “Discovery of small molecule inhibitors of Leishmania braziliensis Hsp90 chaperone” (Journal of Enzyme Inhibition and Medicinal Chemistry, 2020)

Tests used:
[1] = tested on: promastigote form of L. braziliensis; test: Cell viability assay (MTT/PMS), single concentration; type: cell-based; details: L. braziliensis promastigotes; for Cell viability / reduced cell viability: 200 μM/well; for Cell viability: MTT/PMS, Yes = leishmanicidal activity; for reduced cell viability: after 72 h
Procedure: The leishmanicidal activity of the compounds was tested in vitro against the promastigote form of L. braziliensis applying 200 μM/well, (with a total of 0.5% DMSO) into 90 μL of culture. The concentration of L. braziliensis (MHOM/BR/1973/M2269) was adjusted to 10^7 cells/mL. Amphotericin (100 μM/well) was used as positive control, and 0.5% DMSO as negative control.
The plates were incubated at room temperature (RT) for 72 h. After this period, the viability of the promastigotes was verified via MTT (3–(4, 5-Dimethylthiazol-2-yl)-2, 5-Diphenyltetrazolium Bromide) colorimetric assay. MTT/PMS 11.1 μL/well solution (MTT = 5 mg/mL; Phenazine methosulfate-PMS = 0.22 mg/mL) was added, and the plate was incubated at RT for 4 h, at 150 RPM, protected from light. Formazan crystals were then solubilised by adding 100 μL/well of a solubilisation solution containing 7% SDS, 10 mM HCl and 30% DMSO. The mixture was incubated at RT for 90 min at 150 RPM protected from light. Wells containing the medium and the compounds or DMSO without MTT were used as blank controls. The absorbance was quantified in a plate reader (Biotek Synergy HT) at 570 nm.
The cell viability percentages were calculated by the following equation: (1) Cell viability %= AT−AB/AU−AB ×100 where AT was an averaged absorbance from treated samples, AB blank absorbance and AU was an averaged absorbance from negative control.

[2] = tested on: LbHsp90 and LbHsp90N recombinant proteins; test: Differential scanning fluorimetry (thermal shift assay); type: binding, L. braziliensis; details: DSF; for Thermal shift: inclusion criterion Tm variation greater or equal to ± 2 °C in LbHsp90 or LbHsp90N, Yes/No
Procedure: The interaction of Hsp90 proteins with different compounds was monitored through the melting temperature (Tm) of each protein in the presence of a fixed concentration of the target compound by differential scanning fluorimetry (DSF) also referred as thermal shift assay. A final concentration of 10 µM of dimeric LbHsp90 and 20 µM of monomeric LbHsp90N in 40 mM Hepes buffer (pH 7.5) containing 100 mM KCl were used. The DMSO concentration in each sample was fixed at 2.5% (v/v). Prior to the readings, the samples were incubated for 30 min on ice. The fluorophore Sypro Orange (Life Technologies) was used as fluorescent probe. The experiments were performed at a thermocycler CFX96 Touch Real Time PCR Detection System (BioRad) and the data were analysed using the CFX Manager software (BioRad). As positive controls, 100 µM of GA and Radicicol (RDC) were used.

[3] = tested on: promastigote forms of L. braziliensis; test: In vitro IC50 determination (leishmanicidal activity, MTT/PMS); type: cell-based; details: promastigotes, 72 h, RT
Procedure: Amphotericin 100 μM/well and 0.5% DMSO were used as positive and negative control, respectively. The plates were incubated at RT for 72 h. After this, the viability of the promastigotes was verified by MTT/PMS colorimetric assay, as described above. In vitro leishmanicidal activity, expressed as IC50, was determined using GraphPad Prism 5 software according to the following equation: (2) y= Amin + Amax−Amin/1+10^logIC50 −x*Hillslope where Amin and Amax are, respectively, the minimum and maximum activities obtained, x is the ligand concentration and Hill Slope is the parameter that describes the steepness of the curve.
The selectivity index parameter was obtained by the ratio of compound IC50 against mammalian cells and compound IC50 against promastigote cells.

[4] = tested on: Balb-c 3T3 clone A31 mouse fibroblasts; test: Cytotoxic assay (MTT); type: cell-based; details: Balb-c 3T3 mouse fibroblasts, 72 h, 37 °C
Procedure: Compounds cytotoxicity was evaluated in 100 μL of Balb-c 3T3 cone A31 mouse fibroblasts (10^5 cells/mL) into a 96-well plate, incubated for 24 h at 37 °C to become adhered. After this period, the medium was washed and 100 μL of each compound was added to the culture medium (concentration ranging from 1 to 200 μM/well, with a total of 0.5% DMSO) in quadruplicate. Rapamycin was used as a positive control, and 0.5% DMSO was used as negative control. The plates were incubated for 72 h at 37 °C. After this, the viability of Balb-c 3T3 cells was evaluated by MTT colorimetric assay, as described previously.

hHsp90βN = biological target: T1, hHsp90βN (Homo sapiens, UniProt P08238); test: Tryptophan fluorescence quenching interaction assay; type: binding; details: N-terminal domain; for Kd: read-out: KDapp hHsp90βN
T1 construct: N-terminal domain construct (Hsp90βN – residues 1–223); His-tag (cleaved yes); made in house; host or cells: Escherichia coli BL21(DE3)
Procedure: (§1) Two µM of protein in 40 mM Hepes buffer (pH 7.5), 100 mM KCl, was incubated for 30 min on ice with increasing concentrations of the compounds diluted in DMSO. […] The samples were excited at 280 nm and the emission was collected in the 300–400 nm range, in a 1.0 × 0.2 cm optical path cuvette, on an F-4500 Fluorescence Spectrophotometer (Hitachi). The fluorescence quenching was analysed at the maximum emission wavelength in the absence of ligand. The determination of the apparent dissociation constant (KDapp) was performed by fitting the fluorescence values obtained for each compound concentration according to a dose-response model through the Equation (3): (3) y = Fmin + (Fmax−Fmin)/(1+10^(logKD− [ligand])) where Fmin and Fmax are the minimum and maximum fluorescence intensity and [ligand] is the compound concentration used in the assay, according to the GraphPad Prism 5 software. The fluorescence intensities were corrected by inner filter effects as previously described.

LbHsp90 [5] = biological target: T2, LbHsp90 (Leishmania braziliensis, UniProt A4HL70); test: as above; type: binding; details: for Kd: full-length, tryptophan fluorescence quenching, read-out: KDapp LbHsp90
Procedure: as §1

hHsp90β [6] = biological target: T3, hHsp90β (Homo sapiens, UniProt P08238); test: as above; type: binding; details: for Kd: read-out: KDapp hHsp90β
T3 construct: made in house; host or cells: Escherichia coli BL21(DE3)
Procedure: as §1

LbHsp90 [7] = biological target: T2, LbHsp90; test: ATPase activity inhibition assay (EnzChek Pi quantification); type: biochemical; details: compound 1 to 75 μM, triplicate; read-out: IC50 LbHsp90 ATPase activity inhibition
Procedure: (§2) The ATPase activity of LbHsp90 and hHsp90β was evaluated spectrophotometrically through inorganic phosphate (Pi) quantification following ATP hydrolysis, by the EnzChek™ assay kit (Invitrogen®) as previous described[31]^,[34]. Briefly, a 2 µM solution of LbHsp90 and hHsp90β enzymes was prepared in 150 mM NaCl, 5 mM MgCl2 and 20 mM Tris-HCl, pH 7.5, and incubated with ATP (concentration range 0–5 mM) for 60 min at 37 °C. Then, the chromogenic substrate 2-amino-6-mercapto 7-methyl purine riboside (MESG) and the purine nucleoside phosphorylase (PNP) were added and the resulting reaction mixture was incubated for 30 min at 37 °C. The assays were performed in a 96-well plate and kinetic parameters determined by Michaelis–Menten fitting using GraphPad Prism 6 software.
The inhibitory activity against LbHsp90 and hHsp90β of compounds showing interaction in DSF assays (namely Glb08, Glb15, Gl23, Glb25 and Glb27) was determined using spectrophotometric ATPase activity assays as described above. Initial screenings were performed using 50 μM compound concentration in a reaction mixture consisting of 2 μM enzyme and 2.5 mM ATP. After 1 h incubation at 37 °C, MESG and PNP were added. The amount of Pi was estimated after 30 min incubation at 37 °C. GA was used as reference compound, reporting 100% ATPase activity inhibition (at 50 μM). […] A compound concentration ranging from 1 to 75 μM was included in the reaction mixture and Pi quantification performed as previously described (measurements were performed in triplicate). IC50 values were determined by non-linear regression data fitting (using GraphPad Prism 6 software).

hHsp90β [8] = biological target: T3, hHsp90β; test: as above; type: biochemical; details: 50 μM compound, 2 μM enzyme, 2.5 mM ATP
Procedure: as §2
Initial screenings were performed using 50 μM compound concentration in a reaction mixture consisting of 2 μM enzyme and 2.5 mM ATP. After 1 h incubation at 37 °C, MESG and PNP were added. The amount of Pi was estimated after 30 min incubation at 37 °C. […] A compound concentration ranging from 1 to 75 μM was included in the reaction mixture and Pi quantification performed as previously described (measurements were performed in triplicate). IC50 values were determined by non-linear regression data fitting (using GraphPad Prism 6 software).

[9] = full-length, tryptophan fluorescence quenching

T3 sequence (P08238 whole entry): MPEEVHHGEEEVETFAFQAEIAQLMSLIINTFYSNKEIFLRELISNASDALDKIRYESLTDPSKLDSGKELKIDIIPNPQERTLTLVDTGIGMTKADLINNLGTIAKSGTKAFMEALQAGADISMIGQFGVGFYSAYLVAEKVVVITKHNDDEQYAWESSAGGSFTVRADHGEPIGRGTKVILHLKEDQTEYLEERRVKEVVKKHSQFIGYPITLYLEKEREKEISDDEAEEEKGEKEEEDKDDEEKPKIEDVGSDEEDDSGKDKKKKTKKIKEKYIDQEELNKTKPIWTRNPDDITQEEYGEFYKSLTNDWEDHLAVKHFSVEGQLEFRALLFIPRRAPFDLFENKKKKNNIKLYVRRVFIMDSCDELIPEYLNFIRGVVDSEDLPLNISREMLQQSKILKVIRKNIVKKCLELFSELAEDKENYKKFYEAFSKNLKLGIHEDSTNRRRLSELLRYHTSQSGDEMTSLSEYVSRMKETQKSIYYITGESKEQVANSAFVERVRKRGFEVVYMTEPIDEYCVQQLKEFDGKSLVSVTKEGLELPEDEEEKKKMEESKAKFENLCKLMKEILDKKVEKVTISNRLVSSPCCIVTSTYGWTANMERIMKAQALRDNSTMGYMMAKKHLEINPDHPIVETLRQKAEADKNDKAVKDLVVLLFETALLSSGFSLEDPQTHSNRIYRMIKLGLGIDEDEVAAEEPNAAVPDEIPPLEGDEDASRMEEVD
T1 sequence (P08238 1-223): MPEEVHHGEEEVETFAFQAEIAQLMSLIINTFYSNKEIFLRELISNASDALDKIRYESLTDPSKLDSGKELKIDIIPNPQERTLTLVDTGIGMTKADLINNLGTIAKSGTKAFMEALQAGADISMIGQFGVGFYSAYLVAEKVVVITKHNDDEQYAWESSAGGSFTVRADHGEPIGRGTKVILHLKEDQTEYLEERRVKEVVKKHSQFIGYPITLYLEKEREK
T2 sequence (A4HL70 entry or part of it): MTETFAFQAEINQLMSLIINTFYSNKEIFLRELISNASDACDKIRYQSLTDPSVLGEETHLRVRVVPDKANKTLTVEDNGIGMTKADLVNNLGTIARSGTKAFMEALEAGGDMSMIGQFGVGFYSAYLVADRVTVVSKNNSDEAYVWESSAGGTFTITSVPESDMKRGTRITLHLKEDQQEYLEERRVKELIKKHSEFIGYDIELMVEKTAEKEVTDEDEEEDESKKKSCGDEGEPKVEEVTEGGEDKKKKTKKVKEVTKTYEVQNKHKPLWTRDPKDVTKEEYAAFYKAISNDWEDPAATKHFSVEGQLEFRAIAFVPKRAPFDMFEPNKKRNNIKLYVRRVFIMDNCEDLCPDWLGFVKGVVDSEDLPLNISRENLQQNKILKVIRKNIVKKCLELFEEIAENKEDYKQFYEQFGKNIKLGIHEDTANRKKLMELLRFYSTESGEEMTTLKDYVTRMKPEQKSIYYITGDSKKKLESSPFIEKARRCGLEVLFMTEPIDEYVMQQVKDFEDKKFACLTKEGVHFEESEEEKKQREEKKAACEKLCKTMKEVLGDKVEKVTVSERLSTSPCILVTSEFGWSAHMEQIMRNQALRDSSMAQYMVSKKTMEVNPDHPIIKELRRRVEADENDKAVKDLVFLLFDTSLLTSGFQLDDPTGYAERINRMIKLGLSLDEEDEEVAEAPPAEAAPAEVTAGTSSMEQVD

SMILES: C[C@@H]1[C@H](O)[C@@H](C)/C=C/C=C/C=C/C=C/C=C/C=C/C=C/[C@H](O[C@@H]2O[C@H](C)[C@@H](O)[C@H](N)[C@@H]2O)C[C@@H]2O[C@](O)(C[C@@H](O)C[C@@H](O)[C@H](O)CC[C@@H](O)C[C@@H](O)CC(=O)O[C@H]1C)C[C@H](O)[C@H]2C(=O)O [Amphotericin, reference compound]
- killing activity ([1]; positive control, 100 μM/well, 72 h): more than 95%

SMILES: NC(=O)c1ccc(-c2nccc3occc23)cc1 [Glb01]
- Cell viability ([1]; 72 h): No
- Thermal shift [2]: No

SMILES: CCC(=O)NCc1cccc(-c2ccnc3[nH]ccc23)c1 [Glb02]
- Cell viability ([1]; 72 h): No
- Thermal shift [2]: positive outcomes and Yes

SMILES: NC(=O)Nc1cccc(C(=O)OCc2ccccc2C(F)(F)F)c1 [Glb04]
- Cell viability ([1]; 72 h): No
- Thermal shift [2]: No

SMILES: NC(=O)c1ccc(C(=O)N2CCc3ccccc32)cc1 [Glb05]
- Cell viability ([1]; 72 h): No
- Thermal shift [2]: No

SMILES: CS(=O)(=O)N1CCN(c2ccc(C(N)=O)cc2)CC1 [Glb06]
- Cell viability ([1]; 72 h): No
- Thermal shift [2]: No

SMILES: NC(=O)c1cn(Cc2cccc3cccnc23)nc1-c1ccccc1 [Glb07]
- Cell viability ([1]; 72 h): No
- Thermal shift [2]: No

SMILES: CC(C)(C)c1cc(CSC(=N)N)cc(C(C)(C)C)c1O [Glb11]
- Cell viability ([1]; 72 h): No
- Thermal shift [2]: positive outcomes and Yes

SMILES: Nc1nc(Cc2ccccc2)n[nH]1 [Glb12]
- Cell viability ([1]; 72 h): No
- Thermal shift [2]: No

SMILES: Cn1cc(-c2ccc(F)cc2)c2nc[nH]c(=O)c21 [Glb13]
- Cell viability ([1]; 72 h): No
- Thermal shift [2]: No

SMILES: N=C(N)NCc1cn(-c2ccccc2)nc1-c1ccccc1 [Glb14]
- Cell viability ([1]; 72 h): Yes
- reduced cell viability [1]: more than 60%
- IC50 [3]: 30 ± 1 µM
- IC50 [4]: > 200 µM
- Thermal shift [2]: No

SMILES: N=C(N)NCc1ccc(Oc2ccc(F)cc2)cc1 [Glb16]
- Cell viability ([1]; 72 h): Yes
- reduced cell viability [1]: more than 60%
- IC50 [3]: 12 ± 2 µM
- IC50 [4]: 23 ± 1 µM
- Thermal shift [2]: positive outcomes and Yes

SMILES: Cc1cccc(Oc2ccccc2CNC(=N)N)c1 [Glb17]
- Cell viability ([1]; 72 h): Yes
- reduced cell viability [1]: more than 60%
- IC50 [3]: 4 ± 1 µM
- IC50 [4]: 58 ± 1 µM
- KDapp hHsp90βN (hHsp90βN): Ambiguous^#
- tryptophan fluorescence quenching (qualitative) (LbHsp90 [5]; LbHsp90 constructions): did not induce tryptophan fluorescence quenching
- KDapp hHsp90β (hHsp90β [6]; [9]): Ambiguous^#
- tryptophan fluorescence quenching (qualitative) (hHsp90β [6]; hHsp90β constructions): did not induce tryptophan fluorescence quenching
- Thermal shift [2]: No

SMILES: N=C(N)SCc1cc(=O)oc2cc3c(cc12)CCC3 [Glb18]
- Cell viability ([1]; 72 h): No
- Thermal shift [2]: No

SMILES: N=C(N)SCc1cccc(OCC(N)=O)c1 [Glb19]
- Cell viability ([1]; 72 h): No
- Thermal shift [2]: No

SMILES: COc1ccc(C2(CNC(=N)N)CC2)cc1 [Glb20]
- Cell viability ([1]; 72 h): No
- Thermal shift [2]: No

SMILES: N=C(N)Nc1nc(-c2ccccc2)c(CC(=O)O)s1 [Glb21]
- Cell viability ([1]; 72 h): No
- Thermal shift [2]: No

SMILES: N=C(N)SCc1ccc(C(=O)O)cc1 [Glb22]
- Cell viability ([1]; 72 h): No
- Thermal shift [2]: No

SMILES: N=C(N)SCc1nc2ccccc2c(=O)n1-c1ccccc1 [Glb23]
- Cell viability ([1]; 72 h): Yes
- reduced cell viability [1]: more than 60%
- IC50 [3]: > 100 µM
- IC50 (LbHsp90 [7]): 35 ± 1 µM
- IC50 [4]: 55 ± 1 µM
- Kd (hHsp90βN): 20 ± 30 µM
- Kd (LbHsp90 [5]): 26 ± 7 µM
- Kd (hHsp90β [6]; [9]): 21 ± 9 µM
- Thermal shift [2]: No
- percentage inhibition of hHsp90β ATPase activity (hHsp90β [8]): lower than 60%

SMILES: Cn1c(CSC(=N)N)c(Cl)c(=O)n1-c1ccccc1 [Glb24]
- Cell viability ([1]; 72 h): No
- Thermal shift [2]: No

SMILES: Cc1cc(CSC(=N)N)cc(C(C)(C)C)n1 [Glb26]
- Cell viability ([1]; 72 h): No
- Thermal shift [2]: No

SMILES: N=C(N)NN=Cc1ccc2cccc(OCc3ccccc3)c2n1 [Glb27]
- Cell viability ([1]; 72 h): Yes
- reduced cell viability [1]: more than 60%
- IC50 [3]: 11 ± 1 µM
- IC50 [4]: 13 ± 2 µM
- Kd (hHsp90βN): 6 ± 2 µM
- Kd (LbHsp90 [5]): 7 ± 1 µM
- Kd (hHsp90β [6]; [9]): 5 ± 4 µM
- Thermal shift [2]: positive outcomes and Yes
- percentage inhibition of hHsp90β ATPase activity (hHsp90β [8]): lower than 60%

SMILES: N=C(N)NCc1nn(Cc2ccccc2)c(=O)c2ccccc12 [Glb28]
- Thermal shift [2]: No

SMILES: C[C@@H]1C[C@H]2O[C@@H]2/C=C\C=C\C(=O)Cc2c(Cl)c(O)cc(O)c2C(=O)O1 [RDC, Radicicol, reference compound]
- ΔTm ([2]; 100 µM positive controls, protein stabilisation): > 2.0 °C
